Tests used:
[1] = tested on: 60 cancer cell lines (NCI, USA); assay: NCI one-dose SRB assay, whole panel; type: cell-based, human; conditions: 10 μM; cell lines with GI% higher than 10%
Description: (§1) The antitumor assay was performed according to the protocol of the Drug Evaluation Branch, NCI, Bethesda[24–26]. A 48 h drug exposure protocol was adopted, and sulforhodamine B (SRB) assay[27] was utilized to assess the cell growth and viability, as reported earlier[17]^,[28].
(§2) The structures of all the newly synthesized pyridines 5a–l were submitted to the National Cancer Institute (NCI) Developmental Therapeutic Program (www.dtp.nci.nih.gov). […] Nine different types of cancer were tested in this assay: colon, ovarian, prostate, leukemia, melanoma, CNS, renal, breast and lung cancers. A 48 h drug exposure protocol was adopted, and sulforhodamine B (SRB) assay[27] was utilized to assess the cell growth and viability.

[2] = tested on: HL-60(TB); assay: NCI one-dose SRB growth inhibition; type: cell-based; conditions: Homo sapiens, Leukemia, 48 h, read-out: GI% HL-60(TB)
Description: as §1, §2

[3] = tested on: SK-OV-3; assay: NCI one-dose SRB growth inhibition; type: cell-based; conditions: Homo sapiens, Ovarian Cancer, 48 h, read-out: GI% SK-OV-3
Description: as §1, §2

[4] = tested on: SW-620; assay: NCI one-dose SRB growth inhibition; type: cell-based; conditions: Homo sapiens, Colon Cancer, 48 h, read-out: GI% SW-620
Description: as §1, §2

[5] = tested on: 786-0; assay: NCI one-dose SRB growth inhibition; type: cell-based; conditions: Homo sapiens, Renal Cancer, 48 h, read-out: GI% 786-0
Description: as §1, §2

[6] = tested on: SR; assay: NCI one-dose SRB growth inhibition; type: cell-based; conditions: Homo sapiens, 48 h, Leukemia, read-out: GI% SR
Description: as §1, §2

[7] = tested on: SK-MEL-2; assay: NCI one-dose SRB growth inhibition; type: cell-based; conditions: Homo sapiens, Melanoma, 48 h, read-out: GI% SK-MEL-2
Description: as §1, §2

[8] = tested on: NCI/ADR-RES; assay: NCI one-dose SRB growth inhibition; type: cell-based; conditions: Homo sapiens, Ovarian Cancer, 48 h, read-out: GI% NCI/ADR-RES
Description: as §1, §2

[9] = tested on: NCI-H522; assay: NCI one-dose SRB growth inhibition; type: cell-based; conditions: Homo sapiens, NCI-H522, 48 h, Non-Small Cell Lung Cancer, read-out: GI% NCI-H522
Description: as §1, §2

[10] = tested on: NCI-H23; assay: NCI one-dose SRB growth inhibition; type: cell-based; conditions: Homo sapiens, Non-Small Cell Lung Cancer, 48 h, read-out: GI% NCI-H23
Description: as §1, §2

[11] = tested on: UACC-62; assay: NCI one-dose SRB growth inhibition; type: cell-based; conditions: Homo sapiens, UACC-62, 48 h, Melanoma, read-out: GI% UACC-62
Description: as §1, §2

[12] = tested on: UACC-257; assay: NCI one-dose SRB growth inhibition; type: cell-based; conditions: Homo sapiens, UACC-257, read-out: GI% UACC-257, Melanoma, 48 h
Description: as §1, §2

[13] = tested on: EKVX; assay: NCI one-dose SRB growth inhibition; type: cell-based; conditions: Homo sapiens, Non-Small Cell Lung Cancer, 48 h, read-out: GI% EKVX
Description: as §1, §2

[14] = tested on: MOLT-4; assay: NCI one-dose SRB growth inhibition; type: cell-based; conditions: Homo sapiens, Leukemia, 48 h, read-out: GI% MOLT-4
Description: as §1, §2

[15] = tested on: HOP-92; assay: NCI one-dose SRB growth inhibition; type: cell-based; conditions: Homo sapiens, Non-Small Cell Lung Cancer, 48 h, read-out: GI% HOP-92
Description: as §1, §2

[16] = tested on: RPMI-8226; assay: NCI one-dose SRB growth inhibition; type: cell-based; conditions: Homo sapiens, RPMI-8226, 48 h, Leukemia, read-out: GI% RPMI-8226
Description: as §1, §2

[17] = tested on: NCI-H460; assay: NCI one-dose SRB growth inhibition; type: cell-based; conditions: Homo sapiens, Non-Small Cell Lung Cancer, 48 h, read-out: GI% NCI-H460
Description: as §1, §2

[18] = tested on: DU-145; assay: NCI one-dose SRB growth inhibition; type: cell-based; conditions: Homo sapiens, Prostate, 48 h, read-out: GI% DU-145
Description: as §1, §2

[19] = tested on: LOX IMVI; assay: NCI one-dose SRB growth inhibition; type: cell-based; conditions: Homo sapiens, Melanoma, 48 h, read-out: GI% LOX IMVI
Description: as §1, §2

[20] = tested on: NCI-H322M; assay: NCI one-dose SRB growth inhibition; type: cell-based; conditions: Homo sapiens, Non-Small Cell Lung Cancer, 48 h, read-out: GI% NCI-H322M
Description: as §1, §2

[21] = tested on: HS 578T; assay: NCI one-dose SRB growth inhibition; type: cell-based; conditions: Homo sapiens, Breast Cancer, 48 h, read-out: GI% HS 578T
Description: as §1, §2

[22] = tested on: SK-MEL-5; assay: NCI one-dose SRB growth inhibition; type: cell-based; conditions: Homo sapiens, Melanoma, 48 h, read-out: GI% SK-MEL-5
Description: as §1, §2

[23] = tested on: OVCAR-5; assay: NCI one-dose SRB growth inhibition; type: cell-based; conditions: Homo sapiens, Ovarian Cancer, 48 h, read-out: GI% OVCAR-5
Description: as §1, §2

[24] = tested on: HCT-15; assay: NCI one-dose SRB growth inhibition; type: cell-based; conditions: Homo sapiens, HCT-15, 48 h, Colon Cancer, read-out: GI% HCT-15
Description: as §1, §2

[25] = tested on: UO-31; assay: NCI one-dose SRB growth inhibition; type: cell-based; conditions: Homo sapiens, Renal Cancer, 48 h, read-out: GI% UO-31
Description: as §1, §2

[26] = tested on: NCI-H226; assay: NCI one-dose SRB growth inhibition; type: cell-based; conditions: Homo sapiens, Non-Small Cell Lung Cancer, 48 h, read-out: GI% NCI-H226
Description: as §1, §2

[27] = tested on: COLO 205; assay: NCI one-dose SRB growth inhibition; type: cell-based; conditions: Homo sapiens, Colon Cancer, 48 h, read-out: GI% COLO 205
Description: as §1, §2

[28] = tested on: HT29; assay: NCI one-dose SRB growth inhibition; type: cell-based; conditions: Homo sapiens, HT-29, 48 h, Colon Cancer, read-out: GI% HT29
Description: as §1, §2

[29] = tested on: SF-295; assay: NCI one-dose SRB growth inhibition; type: cell-based; conditions: Homo sapiens, CNS Cancer, 48 h, read-out: GI% SF-295
Description: as §1, §2

[30] = tested on: MCF7; assay: NCI one-dose SRB growth inhibition; type: cell-based; conditions: Homo sapiens, Breast Cancer, 48 h, read-out: GI% MCF7
Description: as §1, §2

[31] = tested on: OVCAR-3; assay: NCI one-dose SRB growth inhibition; type: cell-based; conditions: Homo sapiens, OVCAR-3, 48 h, Ovarian Cancer, read-out: GI% OVCAR-3
Description: as §1, §2

[32] = tested on: A498; assay: NCI one-dose SRB growth inhibition; type: cell-based; conditions: Homo sapiens, Renal Cancer, 48 h, read-out: GI% A498
Description: as §1, §2

Cc1nc(-c2cccs2)ccc1NC(=O)Nc1ccc(F)cc1 [Compound 5h, 1-(4-Fluorophenyl)-3-(2-methyl-6-(thiophen-2-yl)pyridin-3-yl)urea]
melting point: 217 to 219 °C
Sensitive cell lines no. [1]: 23
inhibition at 10 µM [2]: 15%
inhibition at 10 µM [3]: < 10%
inhibition at 10 µM [4]: < 10%
inhibition at 10 µM [5]: < 10%
inhibition at 10 µM [6]: 18%
inhibition at 10 µM [7]: 24%
inhibition at 10 µM [8]: < 10%
inhibition at 10 µM [9]: 39%
inhibition at 10 µM [10]: 16%
inhibition at 10 µM [11]: 18%
inhibition at 10 µM [12]: 20%
inhibition at 10 µM [13]: < 10%
inhibition at 10 µM [14]: 29%
inhibition at 10 µM [15]: < 10%
inhibition at 10 µM [16]: 24%
inhibition at 10 µM [17]: < 10%
inhibition at 10 µM [18]: < 10%
inhibition at 10 µM [19]: < 10%
inhibition at 10 µM [20]: < 10%
inhibition at 10 µM [21]: < 10%
inhibition at 10 µM [22]: 12%
inhibition at 10 µM [23]: < 10%
inhibition at 10 µM [24]: 26%
inhibition at 10 µM [25]: 13%
inhibition at 10 µM [26]: < 10%
inhibition at 10 µM [27]: < 10%
inhibition at 10 µM [28]: 12%
inhibition at 10 µM [29]: < 10%
inhibition at 10 µM [30]: 22%
inhibition at 10 µM [31]: < 10%
inhibition at 10 µM [32]: < 10%
